Reference: patent US20250064867A1, “METHOD FOR PREVENTING OR TREATING MUSCLE DISEASE” (KOREA RESEARCH INSTITUTE OF BIOSCIENCE AND BIOTECHNOLOGY, priority 2018, published 2025)

Test system: C2C12 myoblasts
Assay: WST-1 cytotoxicity assay on C2C12
Assay type: cell-based, mouse
Conditions: 24 hours
Method: First, mouse skeletal muscle C2C12 cell line (CRL-1772, ATCC, Manassas, VA, USA) was purchased and used. To assess the cytotoxicity of dexamethasone and HB05P on C2C12, a WST-1 assay (Cell Proliferation Reagent WST-1, 5015944001, Roche, Basel, Switzerland) was performed. Myoblasts (C2C12) were dispensed at a density of 2.0×10^4 cells/well into 96-well plates (Corning® 96-well Clear Polystyrene Microplates, 3598, Corning, Glendale, AZ, USA) and cultured at 37° C. in 5% CO2 conditions for 24 hours. The cultured cells were then treated with varying concentrations of dexamethasone (0, 250, 500, 750, 1000 μM) and HB05P (0, 1.0×10^3, 1.0×10^4, 1.0×10^5, 1.0×10^6, 1.0×10^7 cells/well). After 24 hours of incubation, cell viability was measured using a VersaMax Microplate Reader (Molecular devices, San Jose, CA, USA).

Question: Which “cell viability, trend over concentration” value (0, 250, 500, 750, 1000 μM) does the source give for `C[C@@H]1C[C@H]2[C@@H]3CCC4=CC(=O)C=C[C@]4(C)[C@@]3(F)[C@@H](O)C[C@]2(C)[C@@]1(O)C(=O)CO` [dexamethasone] here?
Answer: concentration-dependent decrease

Question: What about the cell viability (250 μM, untreated = 100%) of the same compound?
Answer: 66.6%
